According to patent publication US4845079A, “Peptidylaminodiols” (priority 1988, dated 1989):
Counter-ions that a name gives are not always drawn.

Target: T1, human renal renin (Homo sapiens, UniProt P00797)
T1 construct: with human renal renin, free from acid proteolytic activity; from tissue; host or cells: human kidney (concluded from the word 'renal')
T1 sequence (P00797 67-406): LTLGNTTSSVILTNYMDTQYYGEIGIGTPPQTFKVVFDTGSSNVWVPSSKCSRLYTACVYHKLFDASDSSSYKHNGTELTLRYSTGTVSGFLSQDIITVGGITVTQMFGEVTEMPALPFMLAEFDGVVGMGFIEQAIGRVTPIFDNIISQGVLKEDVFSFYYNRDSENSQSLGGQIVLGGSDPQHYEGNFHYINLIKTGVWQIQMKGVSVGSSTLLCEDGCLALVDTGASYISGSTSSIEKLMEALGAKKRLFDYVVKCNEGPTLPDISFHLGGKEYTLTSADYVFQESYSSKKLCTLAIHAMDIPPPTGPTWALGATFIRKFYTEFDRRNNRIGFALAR
Assay: in vitro inhibition of human renal renin (angiotensin I formed measured by radioimmunoassay)
Type: biochemical
Settings: human renal renin with renin substrate (human angiotensinogen), 37° C., pH 6.0

SMILES	IC50 [nM]
CC(C)C[C@H](O)[C@H](O)[C@H](CC1CCCCC1)NC(=O)[C@H](Cc1c[nH]cn1)NC(=O)[C@H](Cc1ccccc1)NC(=O)C(C)(C)CN [Example 82, [(α, α-Di-Me)-β-Ala]-Phe-His Amide of 2(S)-Amino-1-cyclohexyl-3(R),4(S)-dihydroxy-6-methylheptane Bis acetic acid salt]	0.6
CCOC(=O)N[C@@H](Cc1ccccc1)C(=O)N(C)[C@@H](Cc1c[nH]cn1)C(=O)N[C@@H](CC1CCCCC1)[C@@H](O)[C@@H](O)CC(C)C [Example 39, Ethoxycarbonyl-Phe-MeHis Amide of 2(S)-Amino-1-cyclohexyl-3(R),4(S)-dihydroxy-6-methylheptane]	2
C[C@H](NC(=O)[C@H](Cc1ccccc1)NC(=O)OC(C)(C)C)C(=O)N[C@@H](CC1CCCCC1)C(O)CO (stereo partly drawn) [Example 3, Boc-Phe-Ala Amide of 3(S)-Amino-4-cyclohexyl-1,2(R,S)-dihydroxybutane]	4000
CC(C)C[C@H](O)[C@H](O)[C@H](CC1CCCCC1)NC(=O)[C@H](Cc1cnc[nH]1)NC(=O)[C@H](Cc1ccccc1)NC(=O)C(C)(C)CNC(=O)OCc1ccccc1 [Example 81]	0.6
